This assay has as its system SK-N-SH human neuroblastoma cells. Put plainly: Serum deprivation/JC-1 mitochondrial membrane potential (MMP) assay. The settings on record: Homo sapiens; for Emax: SK-N-SH, percent maximal intensity in JC-1 ratio normalized to 10 μM dimebolin, read-out: JC-1 max %; for EC50: SK-N-SH cells, serum deprivation ~18 hours, JC-1 ratio normalized to peak value for 10 μM dimebolin, single curve fit to mean data of n=2-3, read-out: EC50. Type of assay: cell-based. In short, it runs like this:
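Cells were serum-deprived ~18 h in MEM with or without compound (DMSO ≤1%), then stained with JC-1 for 35 min at 37° C. The red/green fluorescence ratio (560/595 vs 485/535 nm) was normalized to the peak response of 10 μM dimebolin. EC50 came from one curve fit to mean data (n=2-3, duplicates).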

In the case of `Cc1ccc2c(c1)c1c(n2CCc2ccc(Cl)nc2)C2CC3CC1CN(C3)C2` (stereo not drawn) [Example 196, 8-[2-(6-chloropyridin-3-yl)ethyl]-11-methyl-1,4,5,6,7,8-hexahydro-2H-1,5:3,7-dimethanoazonino[5,4-b]indole], the Emax came to 182% and the EC50 came to 3.91 µM.
In the case of `Cc1ccc2c(c1)c1c(n2CCc2ccccc2C)C2CC3CC1CN(C3)C2` (stereo not drawn) [Example 197, 11-methyl-8-[2-(2-methylphenyl)ethyl]-1,4,5,6,7,8-hexahydro-2H-1,5:3,7-dimethanoazonino[5,4-b]indole], the Emax amounted to 173% and the EC50 worked out at 5.63 µM.
Turning to `Cc1ccc2c(c1)c1c(n2CCc2ccc(C)nc2)C2CCCN(C1)C2` (stereo not drawn) [Example 202, 10-methyl-7-[2-(6-methylpyridin-3-yl)ethyl]-1,3,4,5,6,7-hexahydro-2,6-methanoazocino[4,3-b]indole], the Emax worked out at 239% and the EC50 was determined as 3.07 µM.
Turning to `Cc1ccc2c(c1)c1c(n2CCc2ccccc2C)C2CCCN(C1)C2` (stereo not drawn) [Example 203, 10-methyl-7-[2-(2-methylphenyl)ethyl]-1,3,4,5,6,7-hexahydro-2,6-methanoazocino[4,3-b]indole], the Emax amounted to 159% and the EC50 was found to be 4.53 µM.
The like results for `Cc1ccc2c(c1)c1c(n2CCc2ccc(Cl)cc2)C2CCCN(C1)C2` (stereo not drawn) [Example 204, 7-[2-(4-chlorophenyl)ethyl]-10-methyl-1,3,4,5,6,7-hexahydro-2,6-methanoazocino[4,3-b]indole] were, in that order, 182% and 3.23 µM.
`Cc1ccc2c(c1)c1c(n2S(=O)(=O)c2ccc(Cl)cc2)C2CCN1CC2` [Example 215, 5-[(4-chlorophenyl)sulfonyl]-8-methyl-2,3,4,5-tetrahydro-1,4-ethanopyrido[3,2-b]indole]: the Emax is 196% and the EC50 is 3.34 µM.
For `Cc1ccc2c(c1)c1c(n2-c2ccc3ccncc3c2)C2CCN(CC2)C1` [Example 216, 6-isoquinolin-7-yl-9-methyl-3,4,5,6-tetrahydro-1H-2,5-ethanoazepino[4,3-b]indole], in that order: 284% and 4.2 µM.
Turning to `Cc1ccc2c(c1)c1c(n2-c2ccc3ncccc3c2)C2CCN(CC2)C1` [Example 217, 9-methyl-6-quinolin-6-yl-3,4,5,6-tetrahydro-1H-2,5-ethanoazepino[4,3-b]indole], the Emax was 182% and the EC50 was 2.94 µM.
Regarding `Cc1ccc2c(c1)c1c(n2-c2ccc3ncncc3c2)C2CCN(CC2)C1` [Example 219, 9-methyl-6-quinazolin-6-yl-3,4,5,6-tetrahydro-1H-2,5-ethanoazepino[4,3-b]indole], the Emax was determined as 201% and the EC50 turned out to be 3.07 µM.
`Cc1ccc2c(c1)c1c(n2-c2ccc3ccccc3n2)C2CCN(CC2)C1` [Example 222, 9-methyl-6-quinolin-2-yl-3,4,5,6-tetrahydro-1H-2,5-ethanoazepino[4,3-b]indole]: the Emax was 215% and the EC50 amounted to 4.43 µM.
For `Fc1ccc2c(c1)c1c(n2-c2ccc3ccncc3c2)C2CCN(CC2)C1` [Example 223, 9-fluoro-6-isoquinolin-7-yl-3,4,5,6-tetrahydro-1H-2,5-ethanoazepino[4,3-b]indole], in that order: 287% and 3.84 µM.
The like results for `Fc1ccc2c(c1)c1c(n2-c2ccc3ccccc3n2)C2CCN(CC2)C1` [Example 224, 9-fluoro-6-quinolin-2-yl-3,4,5,6-tetrahydro-1H-2,5-ethanoazepino[4,3-b]indole] were, in that order, 215% and 3.17 µM.
For `Fc1ccc2c(c1)c1c(n2-c2cccc(-n3cccn3)n2)C2CCN(CC2)C1` [Example 225, 9-fluoro-6-[6-(1H-pyrazol-1-yl)pyridin-2-yl]-3,4,5,6-tetrahydro-1H-2,5-ethanoazepino[4,3-b]indole], in that order: 209% and 2.74 µM.
With `Fc1ccc2c(c1)c1c(n2-c2ccc3cccnc3c2)C2CCN(CC2)C1` [Example 226, 9-fluoro-6-quinolin-7-yl-3,4,5,6-tetrahydro-1H-2,5-ethanoazepino[4,3-b]indole], the Emax was 307% and the EC50 is 1.68 µM.
For `Fc1ccc2c(c1)c1c(n2-c2ccc3ncncc3c2)C2CCN(CC2)C1` [Example 227, 9-fluoro-6-quinazolin-6-yl-3,4,5,6-tetrahydro-1H-2,5-ethanoazepino[4,3-b]indole], in that order: 266% and 3.62 µM.
Turning to `Cc1ccc2cc(-n3c4c(c5ccccc53)CN3CCC4CC3)ccc2n1` [Example 232, 6-(2-methylquinolin-6-yl)-3,4,5,6-tetrahydro-1H-2,5-ethanoazepino[4,3-b]indole], the Emax amounted to 220% and the EC50 was 0.81 µM.
The like results for `c1cnc2ccc(-n3c4c(c5ccccc53)CN3CCC4CC3)cc2c1` [Example 233, 6-quinolin-6-yl-3,4,5,6-tetrahydro-1H-2,5-ethanoazepino[4,3-b]indole] were, in that order, 250% and 0.8 µM.
For `c1cnc2cc(-n3c4c(c5ccccc53)CN3CCC4CC3)ccc2c1` [Example 234, 6-quinolin-7-yl-3,4,5,6-tetrahydro-1H-2,5-ethanoazepino[4,3-b]indole], in that order: 281% and 1.27 µM.
The like results for `c1ccc2nc(-n3c4c(c5ccccc53)CN3CCC4CC3)ccc2c1` [Example 235, 6-quinolin-2-yl-3,4,5,6-tetrahydro-1H-2,5-ethanoazepino[4,3-b]indole] were, in that order, 252% and 3.96 µM.
On to `c1cc(-n2cccn2)nc(-n2c3c(c4ccccc42)CN2CCC3CC2)c1` [Example 236, 6-[6-(1H-pyrazol-1-yl)pyridin-2-yl]-3,4,5,6-tetrahydro-1H-2,5-ethanoazepino[4,3-b]indole], for which the Emax was 268% and the EC50 came to 1.74 µM.
For `CN1CCN(c2ccc(-n3c4c(c5ccccc53)CN3CCC4CC3)cc2)CC1` [Example 237, 6-[4-(4-methylpiperazin-1-yl)phenyl]-3,4,5,6-tetrahydro-1H-2,5-ethanoazepino[4,3-b]indole], in that order: 174% and 2.48 µM.
The like results for `O=c1cccnn1CCn1c2c(c3cc(F)ccc31)CN1CCC2CC1` [Example 238, 2-[2-(9-fluoro-1,3,4,5-tetrahydro-6H-2,5-ethanoazepino[4,3-b]indol-6-yl)ethyl]pyridazin-3(2H)-one] were, in that order, 86.5% and 11.6 µM.
In the case of `CC1CCCN1c1ccc(Cn2c3c(c4cc(F)ccc42)CN2CCC3CC2)cn1` (stereo not drawn) [Example 240, 9-fluoro-6-{[6-(2-methylpyrrolidin-1-yl)pyridin-3-yl]methyl}-3,4,5,6-tetrahydro-1H-2,5-ethanoazepino[4,3-b]indole], the Emax turned out to be 170% and the EC50 was 3.33 µM.
For `Fc1ccc2c(c1)c1c(n2Cc2ccc(N3CCCCC3)nc2)C2CCN(CC2)C1` [Example 241, 9-fluoro-6-{[6-(piperidin-1-yl)pyridin-3-yl]methyl}-3,4,5,6-tetrahydro-1H-2,5-ethanoazepino[4,3-b]indole], in that order: 156% and 7.96 µM.

By EC50 is commonly meant the concentration needed to bring the measured effect to its halfway point.

The values above are taken from US9983218B2, “Indole and indoline derivatives and methods of use thereof” (AbbVie Inc., priority 2008, dated 2018).
